Laboratory results: paper PMC8597055, “Exploration of Pyrazolo[1,5‐a]pyrimidines as Membrane‐Bound Pyrophosphatase Inhibitors” (Chemmedchem, 2021)
Where “and” joins values, the source holds several entries; their conditions need not be identical. Identical values can stand only once. Like-named read-outs stand apart in the source and are kept apart here.

Columns and labels:
[1] = Colloidal aggregation by nephelometry under TmPPase assay conditions; type: physicochemical
Protocol: In order to rule out a cause of false positives, colloidal aggregation in the TmPPase model assay was evaluated for compounds 17 a, 19 a and 20 a at six concentrations (100 μM, 50 μM, 20 μM, 10 μM, 1 μM, and 0.1 μM) using the assay conditions (Figure S3).
3 Aggregation data for 17a, 19a and 20a (Figure S3)
Potential colloidal aggregation in the TmPPase model system was studied by nephelometric methods using Nepheloskan Ascent® (Labsystems, Finland). The original assay conditions were simulated, and the light scattering of potential aggregates in the mixture was studied at six concentrations (100 µM, 50 µM, 20 µM, 10 µM, 1 µM and 0.1 µM). Aggregation of the blank and compounds 17a, 19a and 20a was measured as quadruplicates from one independent experiment at three different voltages (300 V, 400 V and 500 V) at room temperature. […]
values at 10 µM, 1 µM and 0.1 µM were similar to those observed by the blank, indicating merely […]
Figure S3. Aggregation data for compounds 17a, 19a and 20a. The data, measured in relative nephelometric units (RNU), is shown as the mean ± SD and normalized to the blank.
(1 picture or pasted object on this page, not shown here)

[2] = target: purified mPPase from P. falciparum (PfPPase-VP1) (Plasmodium falciparum, UniProt Q8IKR1); test: PfPPase-VP1 inhibition assay; type: biochemical; conditions: purified PfPPase-VP1, 50 °C, three replicates; read-out: IC50
Protocol: Further hit validation was done against the purified mPPase from P. falciparum (PfPPase‐VP1) expressed in baculovirus‐infected insect cells. […] Overall, these compounds have higher IC50 values for PfPPase‐VP1 than for TmPPase.
(§1) All commercially obtained compounds had purities >90 % as specified by the vendor. Synthesized compounds were >95 % pure as determined by LC–MS and characterized by HRMS. The inhibition assay was carried out with purified TmPPase as previously reported.[22, 23, 24] The best hits 17 a, 19 a, and 20 a, were validated using eight compound concentrations in triplicate. Further hit validation was done against the purified mPPase from P. falciparum (PfPPase‐VP1) expressed in baculovirus‐infected insect cells (expression, purification and further enzyme analysis will be described in more detail elsewhere). 4 μL of the purified PfPPase‐VP1 (2.0 mg/mL) was reactivated in 96 μL of reactivation buffer, i. e. 20 mM 2‐(N‐morpholino)ethanesulfonic acid (MES) pH 6.5, 3.5 % (v/v) glycerol, 2 mM dithiothreitol (DTT) and 12 mg/mL L‐α‐phosphatidylcholine from soybean. For each tube strip, 3 μL of the reactivated PfPPase‐VP1 was added into 12 μL of reaction buffer (200 mM Tris‐Cl pH 8.0, 8.0 mM MgCl2, 333 mM KCl, 67 mM NaCl) and 25 μL of inhibitor solution. The reaction mixtures were incubated at 50 °C for 5 min and the assay was started with the addition of 10 μL of 2 mM sodium pyrophosphate and further incubation at 50 °C for 45 min. The reaction termination and colour development were done as earlier described.[22, 23, 24]

[3] = target: T1, Thermotoga maritima mPPase (TmPPase) (Thermotoga maritima, UniProt Q9S5X0); test: TmPPase inhibition assay (96-well); type: biochemical
From the text: We started from the previously identified 5‐arylisoxazole‐3‐carboxylate core present in 2–5 (Figure 1, highlighted in blue). Using KNIME,[30] we did a substructure search for commercial analogues in the ZINC12 database[31] […] Therefore, we manually picked compounds from a diverse collection provided by a single vendor (Ambinter, 174 matches for the substructure query). Out of the search results, we selected fifteen isoxazoles for testing in vitro. For all compounds in this manuscript, we tested activity using a 96‐well based assay that detects the inhibition of TmPPase.[22, 23, 24]
as §1
6 IC50 plots from the TmPPase inhibition assay
The blue and black curves refer to compounds presented already in the main article and only shown in the Supporting Information, respectively. IC50, half maximal inhibitory concentration; CI95%, half maximal inhibitory concentration expressed as a 95% confidence interval (given in square brackets); […]
IC50 determinations were done using R 3.6.1[2] and the n-parameter logistic regression (nplr) package[3] version 0.1.7. In this package, the weighted nplr, given x (compound concentrations) and y values (activity) is calculated using Richard’s equation (eq 1) where B and T are the bottom and top asymptotes, respectively; b and xmid are the Hill slope and the x coordinate at inflexion point, respectively; and s is an asymmetric coefficient. The model parameters were simultaneously optimized using non-linear minimization, using a sum of squared errors.[4] The standard error of the model, defined as the squared error on the fitted values, is used to estimate a confidence interval at 95% on the predicted IC50 values.

[4] = test system: Plasmodium falciparum parasite strain 3D7; test: P. falciparum survival (growth) assay in erythrocyte culture, SYBR Green I; type: cell-based; conditions: 72 h, strain 3D7 in human erythrocytes
Protocol: Plasmodium falciparum parasite strain 3D7 was used for testing the antiplasmodial activity of the test compounds. The parasite was maintained in culture as described previously.[37] Briefly, parasites were cultured in O+ human erythrocytes at 5 % haematocrit in RPMI‐1640 medium supplemented with 0.5 % Albumax II (Gibco, Carlsbad, CA, USA), 200 μM hypoxanthine (Sigma, St. Louis, MO, USA) and 20 μg/mL gentamycin (Gibco). Parasites were synchronized with the sorbitol method as described.[38] Test compounds were dissolved in DMSO to make a stock solution of 10 mM or 50 mM. Two‐fold serial dilutions of the test compounds were made in the culture medium to cover either the range of 100 μM–100 nM or 400 μM–390 nM. 50 μL of each dilution were mixed in 96‐well plate with 150 μL of 2 % haematocrit of 0.5 % parasitemia (ring stage). Compound dilutions were also mixed with 150 μL of 2 % haematocrit of uninfected erythrocytes to serve as baselines for the activity of the coloured compounds. DMSO concentration in the highest compound concentration was 0.8 %. After 72 h incubation at 37 °C, the parasite growth was quantified using fluorescent SYBR Green I®‐based assay as described.[39] The half‐maximal inhibitory concentration (IC50) of the test compounds was assessed using the non‐linear regression fit model in Prism 7 (GraphPad Software, San Diego, CA, USA). The potent anti‐malarial drug, artemisinin, was used in parallel as a positive control. Each concentration of the test compounds was tested in duplicate and the assay was repeated three times. The mean and standard deviation of the three repeats were used to calculate the IC50.

[5] = test system: Plasmodium falciparum parasite strain 3D7; design: method as in PMID 32292570; conditions: cited from earlier work
[6] = target: T1, Thermotoga maritima mPPase (TmPPase); design: method as in PMID 31131322, PMID 32292570; conditions: previously reported inhibitors, read-out: IC50 [CI95%]; cited from earlier work

T1 sequence (Q9S5X0 whole entry): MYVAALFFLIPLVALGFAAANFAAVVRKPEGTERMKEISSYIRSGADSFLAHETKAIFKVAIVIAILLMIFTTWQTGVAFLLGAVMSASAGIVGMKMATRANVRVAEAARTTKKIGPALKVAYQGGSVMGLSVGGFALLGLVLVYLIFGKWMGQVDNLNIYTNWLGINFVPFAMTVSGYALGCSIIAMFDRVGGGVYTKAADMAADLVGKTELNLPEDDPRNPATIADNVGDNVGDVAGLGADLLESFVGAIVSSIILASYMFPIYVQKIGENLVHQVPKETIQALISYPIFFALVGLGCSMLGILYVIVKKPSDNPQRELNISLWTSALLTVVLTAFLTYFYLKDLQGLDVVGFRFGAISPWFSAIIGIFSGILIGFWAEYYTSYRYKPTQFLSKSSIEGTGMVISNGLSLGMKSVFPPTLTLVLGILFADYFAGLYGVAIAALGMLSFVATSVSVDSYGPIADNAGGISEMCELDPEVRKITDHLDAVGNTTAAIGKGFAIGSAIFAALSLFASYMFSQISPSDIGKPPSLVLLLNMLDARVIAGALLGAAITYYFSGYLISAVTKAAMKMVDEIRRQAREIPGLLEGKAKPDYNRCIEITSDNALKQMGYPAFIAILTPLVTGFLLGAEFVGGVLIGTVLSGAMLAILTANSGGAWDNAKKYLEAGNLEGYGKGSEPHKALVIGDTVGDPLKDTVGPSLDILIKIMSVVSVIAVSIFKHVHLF
Chain of purified mPPase from P. falciparum (PfPPase-VP1) (Q8IKR1 entry or part of it): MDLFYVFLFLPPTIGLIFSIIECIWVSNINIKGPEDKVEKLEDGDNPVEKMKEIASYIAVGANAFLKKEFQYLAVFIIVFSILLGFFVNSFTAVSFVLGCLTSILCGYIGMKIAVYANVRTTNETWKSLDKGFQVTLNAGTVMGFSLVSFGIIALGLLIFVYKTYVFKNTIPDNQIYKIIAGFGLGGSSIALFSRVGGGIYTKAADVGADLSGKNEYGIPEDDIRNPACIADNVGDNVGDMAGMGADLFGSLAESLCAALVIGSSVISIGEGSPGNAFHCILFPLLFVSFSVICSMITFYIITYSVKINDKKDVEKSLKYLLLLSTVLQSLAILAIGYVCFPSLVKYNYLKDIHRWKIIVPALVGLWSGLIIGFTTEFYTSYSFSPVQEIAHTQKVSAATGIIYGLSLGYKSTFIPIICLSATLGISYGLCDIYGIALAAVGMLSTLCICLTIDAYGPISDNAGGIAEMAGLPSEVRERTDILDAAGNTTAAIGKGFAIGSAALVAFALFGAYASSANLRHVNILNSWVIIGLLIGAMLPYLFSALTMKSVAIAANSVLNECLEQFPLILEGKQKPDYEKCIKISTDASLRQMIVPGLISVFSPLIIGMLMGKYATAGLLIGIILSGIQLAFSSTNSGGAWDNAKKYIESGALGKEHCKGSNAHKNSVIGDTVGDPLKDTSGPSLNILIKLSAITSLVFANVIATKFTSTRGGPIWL

SMILES	concentration of aggregate formation ([1]; TmPPase assay conditions, six concentrations 100–0.1 μM)	colloidal aggregation ([1]; at 10 µM, 1 µM and 0.1 µM)	colloidal aggregation ([1]; at 100 µM, 50 µM and 20 µM)	IC50 [2]	IC50 ([3]; TmPPase inhibition, NA = IC50 not assigned, read-out: IC50 [CI95%])	fold loss in activity compared to 2 ([3]; TmPPase, 17 a versus 2)	IC50 ([4]; Plasmodium falciparum, 3D7, Erythrocyte)	IC50 [4]	activity ex vivo against P. falciparum [5]	IC50 [6]
Cc1cc(C)cc(-c2cc(C(=O)Oc3ccccc3Br)nc3cc(Br)nn23)c1 [17 a, 2‐Bromophenyl 2‐bromo‐7‐(3,5‐dimethylphenyl)pyrazolo[1,5‐a]pyrimidine‐5‐carboxylate]	above 20 μM	negligible/no detectable aggregation	aggregate formation	58 µM and 57.7 µM	14 µM	2 fold	31 µM	30.6 µM		
Cc1cc(C)cc(-c2cc(C(=O)Oc3ccccc3Br)no2)c1 [compound 2]									retained activity	6.9 µM
